Counter-ions that a name gives are not always drawn.
What was measured:
[1] = target: H1N9 Influenza Neuraminidase (Influenza A virus, UniProt P03472); assay: biochemical; set-up: species or system influenza virus (H1N9 strain); conditions: 10 min at 37° C.; read-out: Inhibition of H1N9 Influenza Neuraminidase IC50
H1N9 Influenza Neuraminidase, sequence (P03472 83-470 limits assumed): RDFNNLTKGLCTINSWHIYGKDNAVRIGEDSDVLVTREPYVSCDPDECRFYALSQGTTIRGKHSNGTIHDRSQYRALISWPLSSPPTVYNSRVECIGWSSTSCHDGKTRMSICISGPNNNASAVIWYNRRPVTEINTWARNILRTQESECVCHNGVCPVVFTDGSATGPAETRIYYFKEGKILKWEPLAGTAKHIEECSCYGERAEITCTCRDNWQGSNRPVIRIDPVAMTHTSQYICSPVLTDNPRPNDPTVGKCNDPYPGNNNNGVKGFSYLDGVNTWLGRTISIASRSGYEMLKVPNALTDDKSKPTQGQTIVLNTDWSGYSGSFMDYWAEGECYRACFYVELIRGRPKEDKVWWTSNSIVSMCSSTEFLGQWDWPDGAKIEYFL

| SMILES | melting point | IC50 [1] [µM] |
| --- | --- | --- |
| CC(=O)NC(COCc1ccccc1)[C@H]1C[C@@](O)(C(=O)O)C[C@@H]1N (some centres unmarked) (as salt: ammonium) | 37 to 39 °C | – |
| CC(=O)NC(CO)[C@H]1C[C@@](O)(C(=O)O)C[C@@H]1N (some centres unmarked) (as salt: ammonium) | 83 to 85 °C | – |
| CCC=CC(NC(C)=O)[C@H]1CC(C(=O)O)C[C@@H]1NC(=N)N (some centres unmarked) (as salt: salt) | 62 to 64 °C | – |
| CON(C)CCC(=O)C(NC(C)=O)[C@H]1CC(C(=O)O)C[C@@H]1NC(=N)N (some centres unmarked) (as salt: salt) [Example 20] | 189 to 192 °C | – |
| CCCN(CCC)C(=O)C(NC(C)=O)[C@H]1C[C@@](O)(C(=O)O)C[C@@H]1NC(=N)N (some centres unmarked) (as salt: salt) [Example 23, t-3-{[(Amino)(imino)methyl]amino}-c-4-[(di-n-propylaminocarbonyl)(methylcarbonylamino)-methyl]-t-hydroxycyclpentan-r-carboxylic acid trifluoroacetic acid (4:5)] | 153 to 155 °C | – |
| CC(=O)NC[C@@H]1C[C@H](C(=O)O)C[C@H]1NC(=N)N (relative stereo) [Example 3, t-3-{[(Amino)(imino)methyl]amino}-c-4-[(methylcarbonylamino)methyl]-cyclopentan-r-carboxylic acid trifluoroacetic acid [1:1.25]] | – | 115 |
| N=C(N)NC[C@@H]1C[C@H](C(=O)O)C[C@H]1NC(=N)N (relative stereo) [Example 5, t-3-{[(Amino)(imino)methyl]amino}-c-4-{{[(amino)(imino)methyl]amino}methyl}cyclopentan-r-carboxylic acid dihydrochloride hydrate 2-propanol (5:10:5:2)] | – | 280 |
| CC(=O)NC(C(O)C(O)CO)[C@H]1CC(C(=O)O)C[C@@H]1N (single isomer, unassigned) (as salt: salt) | 58 to 62 °C | – |
| CCCN(CCC)C(=O)C(NC(C)=O)[C@H]1C[C@@](O)(C(=O)O)C[C@@H]1N (single isomer, unassigned) (as salt: salt) | 168 to 170 °C | – |
| CCN(CC)C(=O)C(NC(C)=O)[C@H]1C[C@@H](C(=O)O)C[C@@H]1NC(=N)N (single isomer, unassigned) (as salt: trifluoroacetic acid salt) | > 110 °C (dec.) | – |
| CC(=O)NC(C(O)C(O)CO)[C@H]1CC(C(=O)O)C[C@@H]1NC(=N)N (single isomer, unassigned; isomer a) (as salt: salt) [Example 12, 3β-{[(Amino)(imino)methyl]amino}-4α-[(1-methylcarbonylamino) (2,3,4-trihydroxy)butyl)butyl]-cyclonentancarboxylic acid trifluoroacetic acid (1:2) (isomer A at C-1, isomer A at C-6, isomer B at C-7)] | 76 to 80 °C | – |
| CC(=O)NC(COC(=O)C(F)(F)F)[C@H]1C[C@](O)(C(=O)O)C[C@@H]1NC(=N)N (single isomer, unassigned; isomer a) (as salt: salt) [Example 16, c-3-{[(Amino)(imino)methyl]amino}-t-1-hydroxy-t-4-[(1-methylcarbonylamino)(2-trifluoromethyl-carbonyloxy)ethyl]cyclopentan-r-carboxylic acid trifluoroacetic acid (4:1) (isomer A at C-6)] | 148 to 160 °C | – |
| CC(=O)NC(CO)[C@H]1C[C@@](O)(C(=O)O)C[C@@H]1NC(=N)N (single isomer, unassigned; isomer a) [Example 9, t-3-{[(Amino)(imino)methyl]amino}-t-1-hydroxy-c-4-[(2-hydroxymethyl)(1-methylcarbonyl-amino)ethyl]cyclopentan-r-carboxylic acid trifluoroacetic acid diethyl ether [20:15:2] (isomer A at C-6)] | – | 600 |
| CC(=O)NC(C(O)C(O)CO)[C@H]1CC(C(=O)O)C[C@@H]1N (single isomer, unassigned; isomer a) [Example 10, 3β-amino-4α-[(1-methylcarbonylamino)(2,3,4-trihydroxy)butyl]cyclopentancarboxylic acid trifluoroacetic acid (1:1) (isomer A at C-6)] | – | 600 |
| CC(=O)NC(C(O)C(O)CO)[C@H]1CC(C(=O)O)C[C@@H]1NC(=N)N (single isomer, unassigned; isomer a) [Example 12, 3β-{[(Amino)(imino)methyl]amino}-4α-[(1-methylcarbonylamino) (2,3,4-trihydroxy)butyl)butyl]-cyclonentancarboxylic acid trifluoroacetic acid (1:2) (isomer A at C-1, isomer A at C-6, isomer B at C-7)] | – | 7.5 |
| CC(=O)NC(C(O)C(O)CO)[C@H]1CC(C(=O)O)C[C@@H]1NC(=N)N (single isomer, unassigned; isomer b) (as salt: salt) [Example 13, 3β-{[(Amino)(imino)methyl]amino}-4α-[(1-methylcarbonylamino)(2,3,4-trihydroxy)butyl]-cyclopentancarboxylic acid trifluoroacetic acid (1:2) (isomer B at C-1, isomer A at C-6, isomer B at C-7)] | 124 to 128 °C | – |
| CC(=O)NC(C(O)C(O)CO)[C@H]1CC(C(=O)O)C[C@@H]1NC(=N)N (single isomer, unassigned; isomer b) (as salt: salt) [Example 14, 3β-{[(Amino)(imino)methyl]amino}-4α-[(1-methylcarbonylamino)(2,3,4-trihydroxy)butyl]cyclo-pentancarboxylic acid trifluoroacetic acid (4:9) (isomer B at C-6, isomer A at C-1, C-7 and/or C-8)] | 125 to 135 °C | – |
| CC(=O)NC(C(O)C(O)CO)[C@H]1CC(C(=O)O)C[C@@H]1NC(=N)N (single isomer, unassigned; isomer b) (as salt: salt) [Example 15, 3β-{[(Amino)(imino)methyl]amino}-4α-[(1-methylcarbonylamino)(2,3,4-trihydroxy)butyl]cyclo-pentancarboxylic acid trifluoroacetic acid (5:13) (isomer B at C-6, isomer B at C-1, C-7 and/or C-8)] | 140 to 145 °C | – |
| CC(=O)NC(COC(=O)C(F)(F)F)[C@H]1C[C@](O)(C(=O)O)C[C@@H]1NC(=N)N (single isomer, unassigned; isomer b) (as salt: salt) [Example 17, c-3-{[(Amino)(imino)methyl]amino}-t-1-hydroxy-t-4-[(1-methylcarbonylamino)(2-trifluoromethyl-carbonyloxy)ethyl]cyclopentan-r-carboxylic acid trifluoroacetic acid (4:3) (isomer B at C-6)] | 210 to 220 °C | – |
| CC(=O)NC(CO)[C@H]1CC(C(=O)[O-])C[C@@H]1NC(=N)N.[Na+] (single isomer, unassigned; isomer b) (hydrate or solvate) [Example 7, Sodium 3β-{[(amino)(imino)methyl]amino}-4α-[(2-hydroxy)(1-methylcarbonylamino)ethyl]-cyclopentan-r-carboxylate:diethylether:hydrate (12:4:3), isomer B] | 65 °C | – |
